Measured values taken from patent US20250017885A1, “TREATMENT OF INCLUSION BODY MYOSITIS WITH PHENYLBUTYRATE AND MONITORING OF TREATMENT” (University of Kansas, priority 2023, published 2025).
“Also recorded” adds a separate entry of the source. Where two headings read alike, the source gives them in different places.

Tests used:
[1] = test system: cultured human muscle fibers; settings: Nogalska et al. 2014, cited from earlier work; for Aβ42 and Aβ42 oligomers / Lysosomal dysfunction / lysosomal activity / Muscle-fiber vacuolization / γ-secretase activity: cultured human muscle fibers with experimentally-impaired autophagy
[2] = test system: patients with inclusion body myositis; experiment: Safety and tolerability of PBA in IBM patients (adverse event reporting, safety laboratory tests); format: in vivo, human; settings: for Serious events not related to the study drug / Serious adverse events related to the study drug / Safety and tolerability / Safety laboratory tests (ALT, creatinine, creatine kinase, blood counts): IBM patients; for Serious adverse events related to the study drug: 3 gm twice daily for 3 months; for Safety and tolerability: 3 gm twice daily orally for 3 months; for Safety laboratory tests (ALT, creatinine, creatine kinase, blood counts): two subjects had mildly elevated liver enzymes at baseline
Description: In a study, PBA at a dose of 3 grams (gm) was administered twice daily in patients with inclusion body myositis. In this study, 10 patients received the daily doses of PBA for 3 months after run-up periods of 3 months. […] The study was conducted by monitoring biomarkers and biological indicators in the subjects. One of the biological indicators is mitochondrial membrane potential, and analyzing the biological indicator uses a mitochondrial tracker (e.g., MitoTracker) to monitor mitochondrial membrane potential. […] As such, the biomarkers, including a mitochondrial tracker, allow for monitoring the progress of treatment of IBM in the subject with PBA. Thus, the present invention can use PBA in human subjects to treat inclusion body myositis with a dose of 3 gm twice daily and monitoring biological indicators or other biomarkers to monitor progress of IBM in the subject. Safety and tolerability of PBA in IBM patients were studied, with a run-in period of 3 months without medication. Biomarkers were studied. […] We have previously assayed TDP-43 and its derivative, phosphorylated TDP-43 (pTDP-43) in peripheral blood platelets in our laboratory (Dr. Agbas). TDP43 positive cytoplasmic aggregates have been described in ALS motor neurons and IBM skeletal muscle tissue with significant up-regulation of TARDBP (the gene expresses TDP-43 protein) and SQTM1 (Sequestosome-1) gene expression.14 Therefore, we planned to measure blood-derived platelet total TDP-43 and pTDP-43 as surrogate biomarker for skeletal muscle TDP-43 profile of IBM patients. […] Secondary outcome measures included multiple strength and functional measures: manual muscle testing, timed up and go test (TUG), IBM functional rating scale (IBMFRS), and grip strength. These clinical outcome measures were commonly used in evaluating progression of IBM and in clinical trials of this disease.^18,19,20,21 In addition, safety laboratory tests and electrocardiogram would be monitored regularly. As mentioned above, the biomarkers would be repeated at the end of the treatment period. The PBA was administered orally at 3 gm doses twice a day. […] Mildly elevated liver enzyme reported in two subjects at baseline and before the treatment period. The most common adverse events which were considered related were GI symptoms (n=9). […] The safety lab tests for monitoring purposes include: Liver enzyme (ALT), renal function test (creatinine), muscle enzyme (creatine kinase) and blood counts (including WBC and platelets). For the primary outcome of safety, the frequency of Adverse Events (AEs) and Serious Adverse Events (SAEs) by grade, would be reported. This would be done for each follow-up visit as well as for all visits combined.

[3] = test system: patients with inclusion body myositis; experiment: Secondary outcome measures: strength and functional measures (manual muscle testing, TUG, IBMFRS, grip strength); format: in vivo, human
Excerpt: Primary outcome measures included adverse event reporting. Secondary outcome measures included multiple strength and functional measures: manual muscle testing, timed up and go test (TUG), IBM functional rating scale (IBMFRS), and grip strength. These clinical outcome measures were commonly used in evaluating progression of IBM and in clinical trials of this disease.^18,19,20,21 In addition, safety laboratory tests and electrocardiogram would be monitored regularly. As mentioned above, the biomarkers would be repeated at the end of the treatment period. For the secondary outcomes, the measurements at baseline, month-3, and month-7 would be reported using mean and standard deviation (or median and interquartile range for skewed measurements) along with a corresponding 95% confidence interval. These measurements would be visually compared using box plots to detect the presence of a trend over time by drawing a trend line on the means (or median). Due to the small sample size, this comparison would be done visually, and no formal statistical test would be done routinely but it would be considered to further study a trend.

[4] = test system: mitochondrial membrane potential; experiment: MitoTracker biomarker (overall mitochondrial mass / mitochondrial membrane potential) in IBM patients treated with PBA; format: in vivo, human
Excerpt: The mitochondrial tracker used to track treatment of IBM with PBA can include MitoTracker dyes that are cationic fluorophores that accumulate electrophoretically into mitochondria in response to the highly negative mitochondrial membrane potential. […] Thus, mitochondria retain MitoTracker dyes like MitoTracker Orange CMTMRos after loss of their membrane potential. Sec, Kholmukhamedov A, Schwartz J M, Lemasters J J. Isolated mitochondria infusion mitigates ischemia-reperfusion injury of the liver in rats: mitotracker probes and mitochondrial membrane potential. Shock. 2013 June; 39(6):543. doi:10.1097/SHK.0b013e318292300d. PMID: 23680774; PMCID: PMC3759289.
(§1) Safety and tolerability of PBA in IBM patients were studied, with a run-in period of 3 months without medication. Biomarkers were studied. […] We have previously assayed TDP-43 and its derivative, phosphorylated TDP-43 (pTDP-43) in peripheral blood platelets in our laboratory (Dr. Agbas). TDP43 positive cytoplasmic aggregates have been described in ALS motor neurons and IBM skeletal muscle tissue with significant up-regulation of TARDBP (the gene expresses TDP-43 protein) and SQTM1 (Sequestosome-1) gene expression.14 Therefore, we planned to measure blood-derived platelet total TDP-43 and pTDP-43 as surrogate biomarker for skeletal muscle TDP-43 profile of IBM patients.
The trend observed in the boxplots of MitoTracker data warranted further exploration with a post hoc analysis. A generalized linear mixed model was used to estimate mean values of MitoTracker at each timepoint. 10 of 11 subjects had measurements at all 3 timepoints. Time was used as a categorical value and correlation among an individual's repeated measurements was accounted for with a random effect for subject. The fixed effect, month, was not statistically significant (p=0.0724). […] The results from the model are exploratory.
For the secondary outcomes, the measurements at baseline, month-3, and month-7 would be reported using mean and standard deviation (or median and interquartile range for skewed measurements) along with a corresponding 95% confidence interval. These measurements would be visually compared using box plots to detect the presence of a trend over time by drawing a trend line on the means (or median). Due to the small sample size, this comparison would be done visually, and no formal statistical test would be done routinely but it would be considered to further study a trend.

[5] = test system: Annexin, MitoSox, TMRE, TDP-43; experiment: Exploratory biomarkers: Annexin, MitoSox, TMRE, TDP-43; format: in vivo, human; settings: FIGS. 7A-7B, 8A-8B, 9A-9B, 10A-10B
Excerpt: as §1

[6] = AE considered possibly or probably related, 3 gm orally twice a day, 3 months
[7] = AE considered unrelated, at baseline before the treatment period
[8] = gastrointestinal AE considered possibly or probably related, 3 gm orally twice a day, 3 months
[9] = lysosomal activity-inhibited CHMFs

O=C([O-])CCCc1ccccc1.[Na+] [NaPBA, Sodium phenylbutyrate]
Aβ42 and Aβ42 oligomers [1]: decreased Aβ42 and its oligomers | Lysosomal dysfunction / lysosomal activity [1]: improved lysosomal activity | Muscle-fiber vacuolization [1]: virtually prevented muscle-fiber vacuolization | γ-secretase activity [1]: decreased γ-secretase activity | Lysosomal dysfunction / lysosomal activity ([1]; listed as NaPB): reverses lysosomal dysfunction

phenylbutyrate [PBA]
Number of occurrences: Drowsiness [2, 6]: 1 | Number of occurrences: Gastrointestinal AEs [2, 6]: 9 | Number of occurrences: Hair Loss [2, 6]: 1 | Number of occurrences: Musculoskeletal Pain [2, 6]: 2 | Number of occurrences: Nasal Congestion [2, 6]: 1 | Number of occurrences: Tremor [2, 6]: 1 | Number of occurrences: Two Itchy Skin Lesions [2, 6]: 1 | Number of subjects: Drowsiness [2, 6]: 1 | Number of subjects: Gastrointestinal AEs [2, 6]: 9 | Number of subjects: Hair Loss [2, 6]: 1 | Number of subjects: Musculoskeletal Pain [2, 6]: 2 | Number of subjects: Nasal Congestion [2, 6]: 1 | Number of subjects: Tremor [2, 6]: 1 | Number of subjects: Two Itchy Skin Lesions [2, 6]: 1 | Number of subjects: Hair Loss ([2]; AE considered possibly or probably related, 3 gm orally twice a day, 3 months, listed as study drug): One subject had hair loss which was considered possibly related | Number of occurrences: Back Pain ([2]; AE considered unrelated): 1 | Number of occurrences: Chills ([2]; AE considered unrelated): 1 | Number of occurrences: Elevated White Blood Count ([2]; AE considered unrelated): 1 | Number of occurrences: Elevated blood pressure ([2]; AE considered unrelated): 2 | Number of occurrences: Falls ([2]; AE considered unrelated): 9 | Number of occurrences: Headache ([2]; AE considered unrelated): 1 | Number of occurrences: Low blood pressure ([2]; AE considered unrelated): 1 | Number of occurrences: Numbness in the Legs ([2]; AE considered unrelated): 1 | Number of occurrences: Right Bundle Branch Block ([2]; AE considered unrelated): 1 | Number of occurrences: Urinary Urgency ([2]; AE considered unrelated): 2 | Number of subjects: Back Pain ([2]; AE considered unrelated): 1 | Number of subjects: Chills ([2]; AE considered unrelated): 1 | Number of subjects: Elevated White Blood Count ([2]; AE considered unrelated): 1 | Number of subjects: Elevated blood pressure ([2]; AE considered unrelated): 2 | Number of subjects: Falls ([2]; AE considered unrelated): 6 | Number of subjects: Headache ([2]; AE considered unrelated): 1 | Number of subjects: Low blood pressure ([2]; AE considered unrelated): 1 | Number of subjects: Numbness in the Legs ([2]; AE considered unrelated): 1 | Number of subjects: Right Bundle Branch Block ([2]; AE considered unrelated): 1 | Number of subjects: Urinary Urgency ([2]; AE considered unrelated): 2 | Number of occurrences: Elevated liver enzymes [2, 7]: 2 | Number of subjects: Elevated liver enzymes [2, 7]: 2 | Serious events not related to the study drug [2]: the only serious event reported (a fall) was related to the disease itself, not the study drug | Serious adverse events related to the study drug [2]: no serious adverse events related to the study drug were reported | Serious adverse events related to the study drug ([2]; listed as study drug): No study drug-related serious events were reported | Safety and tolerability [2]: safe and well-tolerated | Safety and tolerability ([2]; listed as Phenylbutyrate): safe and well tolerated | Safety and tolerability ([2]; listed as study drug): well tolerated | Serious events not related to the study drug ([2]; listed as study drug): one serious event (a fall that required a hospital visit) that was not related to the study drug | Safety laboratory tests (ALT, creatinine, creatine kinase, blood counts) [2]: indicates safety for the PBA administration | Safety laboratory tests (ALT, creatinine, creatine kinase, blood counts) ([2]; listed as study drug): No other significant laboratory changes were noted | Number of occurrences: Constipation [2, 8]: 1 | Number of occurrences: Heartburn [2, 8]: 4 | Number of occurrences: Nausea [2, 8]: 2 | Number of occurrences: Oral Aphthous [2, 8]: 1 | Number of occurrences: Urgency [2, 8]: 1 | Number of subjects: Constipation [2, 8]: 1 | Number of subjects: Heartburn [2, 8]: 4 | Number of subjects: Nausea [2, 8]: 2 | Number of subjects: Oral Aphthous [2, 8]: 1 | Number of subjects: Urgency [2, 8]: 1 | Number of occurrences: Strep. Throat Infection ([2]; human, in vivo): 1 | Number of subjects: Strep. Throat Infection ([2]; human, in vivo): 1 | IBMFRS change during the study ([3]; 3 months run-in, 3 months treatment): did not seem to change during the study | IBMFRS median ([3]; at the end of the treatment period, median 23 at baseline, 24 at the beginning of the treatment period): 23 | Strength evaluation of 24 muscles with accumulative total score, change ([3]; in vivo): No meaningful change | TUG (seconds) over the duration of the treatment, change ([3]; in vivo): No meaningful change | Change in all clinical and most biological outcome measures ([3]; short duration, small sample size): no meaningful changes in all clinical and most biological outcome measures | MitoTracker median ([4]; at the end of the treatment period, 19299 at the baseline, 28823 at the beginning of the treatment period): 8010 | MitoTracker estimated coefficient (95% CI), Month 6 ([4]; generalized linear mixed model, Month 3 reference, p 0.0385): −21,344 (−41,402, −1,287) | MitoTracker estimated coefficient (95% CI), On treatment - Off treatment ([4]; generalized linear mixed model, after treatment vs months 0 and 3 combined): 20,780 (3,091, 38,469) | MitoTracker (mitochondrial mass) change with treatment ([4]; treatment period vs run-in period): statistically significant change in the mitochondria; also recorded: changes with treatment with PBA; also recorded: statistically significant change in MitoTracker (mitochondrial mass); also recorded: dropped at the end of the treatment period; also recorded: statistically significantly different from pre-treatment; also recorded: significant drop with treatment | Change in exploratory biomarkers (Annexin, MitoSox, TMRE, TDP-43) [5]: no meaningful change in most exploratory biomarkers | Aβ42 and Aβ42 oligomers [1]: decreases Aβ42 and Aβ42 oligomers | Muscle-fiber vacuolization [1]: decreasing their vacuolization | γ-secretase activity [1]: decreases γ-secretase activity | Cathepsins D and B activities [1, 9]: increased cathepsins D and B activities | NBR1, p62 and LC3-II [1, 9]: decrease of NBR1, p62 and LC3-II
